Assay results reported in patent US6589996B2, “Treatment of disorders relating to the serotonergic system” (Orion Corporation, priority 2000, dated 2003).
Like-named read-outs stand apart in the source and are kept apart here.

How the values were obtained:
depressive symptoms = experiment: randomised placebo-controlled double-blind study in GAD: depressive symptoms (MADRS); assay type: in vivo, human
Description: (§1) The efficacy of deramciclane in the treatment of anxiety, specifically GAD, was studied in a randomised placebo-controlled double-blind study. In addition, the dosage-dependency of the effects of deramciclane was evaluated. A total of 208 patients were included in the study. The subjects were randomly assigned to four parallel groups to receive one tablet twice daily (b.i.d) of a placebo, 5 mg (=10 mg/day), 15 mg (=30 mg/day), or 30 mg (=60mg/day) deramciclane. The study started with a one-week placebo run-in period, followed by an eight-week placebo-controlled active treatment and a two-week placebo washout period.
The efficacy of deramciclane on depressive symptoms was studied using the Montgomery Asberg Depression Rating Scale (MADRS).

[1] = tested on: anxiety, specifically GAD; experiment: randomised placebo-controlled double-blind study in GAD: anxiety symptoms (HAM-A, CGI); assay type: in vivo, human; conditions: for CGI severity of illness: percentage of patients not ill or very mildly ill: after 8 weeks
Description: as §1
The efficacy of deramciclane on anxiety symptoms was studied by the efficacy variable Hamilton Anxiety Scale (HAM-A), analyzing the change in the score and using responder criterion (at least 50% reduction in HAM-A total score). The Clinical Global Impression (GCI) scale was also used for analyzing the efficacy of deramciclane on anxiety symptoms.

[2] = human, in vivo
Description: In a comparative pharmacokinetic study of orally administered deramciclane in rats, dogs, rabbits and humans (Klebovich et al Pharm. Pharmacol. Commun., 4:129-136, 1998), it was shown that the plasma concentration curves obtained after the administration of a single 3 mg/kg oral dose of deramciclane to rats (dogs, rabbits) and human show considerable species specific differences. […] Thus a 40-times lower oral dose of deramciclane could be used in man to result in the same maximal plasma concentration as in rat. […] Thus, over 300 times lower oral doses should result in equal exposure in humans than in rats. Basing only the Cmax difference between rat and man, it can be predicted that considerably lower doses should be centrally active in humans than in rat. The minimum oral effective anti-anxiety dose in rats was 1 mg/kg (1-30 mg/kg the full range; see above), i.e. in a 70 kg-man this would mean 70 mg dose. […] This would result in 70 mg/40=1.75 mg (i.e. 0.025 mg/kg) as an effective dose in man.

rats [3] = conditions: oral doses of 25 and 100 mg/kg; cited from earlier work
rats [4] = conditions: cited from earlier work
[5] = molecular target: serotonin 5-HT2C-receptor (Homo sapiens, UniProt P28335); conditions: cited from earlier work
Chain of serotonin 5-HT2C-receptor (P28335 33-458): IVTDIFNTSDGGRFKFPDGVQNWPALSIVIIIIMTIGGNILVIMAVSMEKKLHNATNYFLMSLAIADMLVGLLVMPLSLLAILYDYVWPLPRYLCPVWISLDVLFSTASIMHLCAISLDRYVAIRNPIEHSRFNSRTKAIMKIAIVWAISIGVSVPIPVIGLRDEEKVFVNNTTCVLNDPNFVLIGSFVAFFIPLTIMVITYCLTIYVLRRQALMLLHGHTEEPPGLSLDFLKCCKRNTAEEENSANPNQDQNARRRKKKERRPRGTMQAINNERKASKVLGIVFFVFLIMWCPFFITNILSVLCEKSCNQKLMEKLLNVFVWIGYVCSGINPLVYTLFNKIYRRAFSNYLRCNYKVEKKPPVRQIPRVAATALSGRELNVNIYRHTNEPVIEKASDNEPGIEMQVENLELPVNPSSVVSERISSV

rats [6] = conditions: cited from earlier work; remark: listed apart in the source
rats [7] = conditions: intraperitoneally 1 or 10 mg/kg, 8 times, twice a day; cited from earlier work
serotonin 5HT2A-receptor = serotonin 5HT2A-receptor (Homo sapiens, UniProt P28223); conditions: cited from earlier work
Chain of serotonin 5HT2A-receptor (P28223 whole entry): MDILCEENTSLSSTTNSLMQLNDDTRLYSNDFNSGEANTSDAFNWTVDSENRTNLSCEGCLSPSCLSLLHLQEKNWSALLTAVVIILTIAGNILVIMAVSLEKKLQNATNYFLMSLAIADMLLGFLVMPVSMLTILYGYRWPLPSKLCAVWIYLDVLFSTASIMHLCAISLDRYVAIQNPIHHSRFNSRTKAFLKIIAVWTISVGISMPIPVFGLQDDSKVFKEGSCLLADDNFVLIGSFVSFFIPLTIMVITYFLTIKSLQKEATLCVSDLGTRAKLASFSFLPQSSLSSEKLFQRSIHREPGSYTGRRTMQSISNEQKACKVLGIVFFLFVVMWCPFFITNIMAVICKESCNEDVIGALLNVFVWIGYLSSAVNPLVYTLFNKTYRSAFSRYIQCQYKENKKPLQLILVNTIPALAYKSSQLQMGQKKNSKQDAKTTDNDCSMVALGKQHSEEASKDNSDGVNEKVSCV

[8] = rats, 3 mg/kg, cited from earlier work
[9] = human, cited from earlier work; for Cmin and Cmax range: repeated administration for one week
mice [10] = conditions: single subcutaneous administration, 3 mg/kg; cited from earlier work
[11] = rat, single oral administration; cited from earlier work
[12] = molecular target: T1, serotonin 5-HT2A-receptors in frontal cortex (Homo sapiens, UniProt P28223); conditions: human brain, single oral dose; cited from earlier work
T1 construct: serotonin 5-HT2A-receptors in frontal cortex of healthy male volunteers; from tissue; host or cells: frontal cortex of living healthy male volunteers (in vivo)
T1 sequence (P28223 whole entry): as above

mice [13] = conditions: oral doses 48-160 mg/kg; cited from earlier work
withdrawal symptoms = experiment: randomised placebo-controlled double-blind study in GAD: Physician's Withdrawal Checklist (PWC); assay type: in vivo, human
Description: as §1
After stopping the above-described 8-week treatment period, no discontinuation effects were seen (measured by the Physician's Withdrawal Checklist, PWC). This is different and surprising from the experiences with the most other efficacious drugs used for the treatment of anxiety.

rats [14] = conditions: single intraperitoneal administration; cited from earlier work
[15] = human, cited from earlier work

With `CN(C)CCO[C@]1(c2ccccc2)C[C@H]2CC[C@]1(C)C2(C)C` [deramciclane, (1R,2S,4R)-(−)-2-[N,N-(dimethylaminoethoxy)]-2-phenyl-1,7,7-trimethyl-bicyclo [2.2.1]heptane] the “effect on MADRS score” value (depressive symptoms; 5 mg b.i.d) was “ineffective”, the MADRS score decrease (depressive symptoms; 15 mg b.i.d, p=0.028) was 7.7 points and the MADRS score decrease (depressive symptoms; 30 mg b.i.d, p=0.016) was 8.0 points. The “HAM-A score, difference from placebo” value ([1]; 5 mg b.i.d, 8 weeks) was “No difference”, the “CGI severity of illness: percentage of patients not ill or very mildly ill” value ([1]; 5 mg b.i.d) was 49% and the “responders (at least 50% reduction in HAM-A total score)” value ([1]; 5 mg b.i.d., n=31) was 57%. For the same compound, the “HAM-A score decrease from baseline” value ([1]; 15 mg b.i.d, 8 weeks, p=0.006 vs placebo) was 14.5 points, the “CGI severity of illness: percentage of patients not ill or very mildly ill” value ([1]; 15 mg b.i.d) was 55% and the “responders (at least 50% reduction in HAM-A total score)” value ([1]; 15 mg b.i.d., n=39, p=0.020 vs placebo) was 76%. For the same compound, the “CGI severity of illness: percentage of patients not ill or very mildly ill” value ([1]; 30 mg b.i.d, p=0.030) was 61%, the “HAM-A score decrease from baseline” value ([1]; 30 mg b.i.d., 8 weeks, not significant vs placebo) was 14.5 points and the “responders (at least 50% reduction in HAM-A total score)” value ([1]; 30 mg b.i.d., n=37) was 70%. For the same compound, the “factor by which oral dose in man is lower for the same maximal plasma concentration as in rat” value [2] was 40 times, the “factor by which oral dose is lower for equal exposure in humans than in rats” value ([2]; rat) was “over 300 times” and the “effect in forced swimming test” value (rats [3]) was “clearly ineffective”. For the same compound, the “effect on caerulein-induced decrease in exploratory behavior” value (rats [4]; intraperitoneal dose of 0.5 mg/kg) was “able to attenuate”, the “effect in elevated plus maze test” value (rats [4]; rats, single intraperitoneal doses 0.1 mg/kg-5 mg/kg) was “totally ineffective” and the “antagonism of the receptor” value [5] was “potent antagonist”. The binding affinity ([5]; in vitro) was “high affinity”, the “minimum oral effective anti-anxiety dose” value (rats [6]; oral) was 1 mg/kg and the “activity in punished drinking test” value (rats [6]; single oral administration, 1 mg/kg and 10 mg/kg) was “active”. For the same compound, the “effect on helpless behaviour induced by inescapable electric foot shocks” value (rats [7]) was “dose dependently attenuated helpless behaviour”, the “antagonism of the receptor” value (serotonin 5HT2A-receptor) was “potent antagonist” and the binding affinity (serotonin 5HT2A-receptor; in vitro) was “high affinity”. The “radioactivity in organs including blood and the brain” value ([8]; intravenous administration) was “high radioactivity”, the “radioactivity in organs, especially the brain” value ([8]; oral administration, compared with intravenous) was “substantially lower” and the “Cmin and Cmax range” value ([9]; 20 mg daily) was 0.016 to 0.033 µg/mL. For the same compound, the “Cmin and Cmax range” value ([9]; 60 mg daily) was 0.048 to 0.091 µg/mL, the Cmax ([9]; single oral 20 mg) was 0.024 ± 0.0094 µg/mL and the Cmax ([9]; single oral 30 mg) was 0.027 ± 0.0061 µg/mL. For the same compound, the “activity in two compartment test” value (mice [10]) was “active”, the “mean AUC 0-∞” value [11] was 0.0119 µg·h/mL and the “plasma concentration at 50% 5HT2A-receptor occupancy” value [12] was ~21 ng/mL. For the same compound, the “plasma concentration at 90% 5HT2A-receptor occupancy” value [12] was “about 70 ng/ml”, the “effect on tetrabenazine-induced ptosis” value (mice [13]) was “negligible” and the “PWC value, Mean (SD)” value (withdrawal symptoms; 5 mg b.i.d., after 2 week wash-out) was 9 (8). For the same compound, the “PWC value, Mean (SD)” value (withdrawal symptoms; 5 mg b.i.d., after 8 week treatment) was 9 (7), the “PWC value, Mean (SD)” value (withdrawal symptoms; 15 mg b.i.d., after 2 week wash-out) was 8 (7) and the “PWC value, Mean (SD)” value (withdrawal symptoms; 15 mg b.i.d., after 8 week treatment) was 7 (8). The “PWC value, Mean (SD)” value (withdrawal symptoms; 30 mg b.i.d., after 2 week wash-out) was 8 (7), the “PWC value, Mean (SD)” value (withdrawal symptoms; 30 mg b.i.d., after 8 week treatment) was 8 (8) and the “withdrawal symptoms after abrupt discontinuation” value (withdrawal symptoms; after 8-week treatment) was “did not cause any withdrawal symptoms”. The “effect on social interaction time” value (rats [14]) was “enhanced the social interaction time”, the minimum effective dose (rats [14]) was 0.7 mg/kg and the Cmax ([15]; single 3 mg/kg oral dose) was 0.2175 µg/mL. For the same compound, the “mean AUC 0-∞” value ([15]; single oral administration) was 3.7378 µg·h/mL.
